Measurements published in patent publication US6444872B1, “Large animal model of invasive pulmonary aspergillosis in an immunocompromised host” (priority 1999, dated 2002).

Assays:
Aspergillus fumigatus = assay: Beagle model of invasive pulmonary aspergillosis in an immunocompromised host (TBI + steroids, bronchoscopic spore inoculation); assay type: in vivo
From the text: 1. The “Right” Animal: While choosing an animal the inventors had to consider that a human/clinical mold infection, such as an Aspergillus infection, usually begins as a localized infection and not as a widespread and diffuse pulmonary infection. To be able to reproducibly inoculate a specified dose of an infectious agent in a limited, defined part of the airways the inventors must have easy access to a particular part of the pulmonary tree. This meant that a large animal, such as dog, pig, sheep or monkey, rather than a rodent or lagomorph should be considered. The beagle, which is accepted by both the NCI and the FDA for safety studies of pharmaceutically active agents prior to entering clinical trials, was favored. This dog is easily accessible from several commercial breeders, and in addition to the selected experimental dogs one could conveniently house extra animal's for donation of both platelets and red cells to be transfused as needed during the supportive care phase of the experiments, i.e. after the mold administration.
2. Immunosuppression: For immunosuppression the inventors chose total body irradiation (TBI) with an X-ray (Cobalt) (XRT) source, administered with the animal under general anesthesia in a specially constructed box to obtain uniform radiation exposure. […] Further, the XRT dose can be calculated such that it gives a window of fairly deep immunosuppression sustained for 3-5 weeks, which should be sufficient for the intended purpose. The XRT was followed with daily oral prednisolone administration to further suppress T-lymphocyte and macrophage function and enhance spreading the infection.
3. Mold Species: More than 90% of human clinical Aspergillus infections are a result of Aspergillus fumigatus infection.
4. Mold Dose: To standardize the mold dosage, the inventors prepared batches of Aspergillus spores that were mixed in agarose and stirred down vigorously in mineral oil to obtain a suspension of spores encapsulated in small agarose beads (the approximate average bead diameter was 20 μm). After washing the beads in 0.5% deoxycholate, they were mixed with glycerol prior to cryopreservation and storage at −70° C. The use of agar beads and other encapsulation methods are also contemplated.
5. Mold Administration: The human clinical infection usually starts as a localized airway infection either in the sinuses or in a part of one lung, and not as a generalized pulmonary infection. The inventors decided to utilize a pediatric bronchoscope to safely and reproducibly introduce the Aspergillus spores in the intermediary (lower) right lung lobe. After standardization of the dose, 1×10^6 spores encapsulated in agarose beads and resuspended in NS were infused at each occasion.
6. Time of Mold Administration: In most human patients, Aspergillus infections occur at a time of leukopenia and profound immunosuppression. The time to develop leukopenia after TBI was very reproducible in the beagles. At day 10-14 days after XRT, when the animal's absolute white blood cell count falls below about 500 per μL (neutrophil count <400 per μL), the mold spore administration was performed. The WBC remain at about <500 per μL till day 25-30 after TBI, at which time the count recovered fairly rapidly in animal's that had not been inoculated with Aspergillus spores, or in beagles who had been inoculated with a dose that was too low to yield progressive infection.
7. Supportive Care: The first few animal's died from a superimposed secondary bacterial infection rather than from the mold infection itself In addition, there were bleeding complications when the dogs' platelet count fell below 10,000 per μL. The inventors therefore decided to utilize prophylactic oral (broad-spectrum) antibiotics and “prophylactic” platelet transfusions. […]

[1] = human, in vivo; cited from earlier work
[2] = in vivo; cited from earlier work
[3] = the two dogs that rejected the infection

## C[C@@H]1C/C=C/C=C/C=C/C=C/[C@H](O[C@@H]2O[C@H](C)[C@@H](O)[C@H](N)[C@@H]2O)C[C@@H]2O[C@](O)(C[C@@H](O)C[C@H]3O[C@@H]3/C=C/C(=O)O1)C[C@H](O)[C@H]2C(=O)O [Natamycin]
Aspergillus fumigatus; after a 16-day cycle of daily Natamycin treatments
  outcome of infection: two animal's rejected the infection
Aspergillus fumigatus; one animal, expected life span nine days, daily intravenous Natamycin
  life span after fungal inoculation: 17 days
Aspergillus fumigatus; single dog, 1 x 10^6 spores, TBI 3.0 Gy, steroid 30/10 mg, platelet/antibiotic support
  Pneumonia: Yes
Aspergillus fumigatus; single dog, survived pneumonia 4 weeks post therapy
  Complications (outcome): Dog survived
Aspergillus fumigatus; [3]
  necropsy finding: only signs of healing
  time free from resurgence of the mold infection post completion of drug treatment: one
Aspergillus fumigatus; therapy instituted a day after Aspergillus inoculum, last 3 beagles, 3.0 Gy TBI
  extended life as compared to untreated animals: Natamycin extended life by 80% as compared to untreated animals

## C[C@@H]1[C@H](O)[C@@H](C)/C=C/C=C/C=C/C=C/C=C/C=C/C=C/[C@H](O[C@@H]2O[C@H](C)[C@@H](O)[C@H](N)[C@@H]2O)C[C@@H]2O[C@](O)(C[C@@H](O)C[C@@H](O)[C@H](O)CC[C@@H](O)C[C@@H](O)CC(=O)O[C@H]1C)C[C@H](O)[C@H]2C(=O)O [AMB, Amphotericin B]
[1]
  cases with nephrotoxicity: > 75%

## CC[C@]1(O)C[C@@H]2CN(CCc3c([nH]c4ccccc34)[C@@](C(=O)OC)(c3cc4c(cc3OC)N(C)[C@H]3[C@@](O)(C(=O)OC)[C@H](OC(C)=O)[C@]5(CC)C=CCN6CC[C@]43[C@@H]65)C2)C1 [Vinblastine]
[2]
  administered dose recovered in the feces after biliary excretion: about 10%
  dose excreted intact into the urine: Approximately 15%
